Structures can show the parent of a compound that is named as a salt. Where two headings read alike, the source gives them in different places. Some results are limits rather than exact numbers.

Data set [1] relates to unanesthetized spontaneous hypertensive rat. The data set is described as follows: Antihypertensive activity, single oral medication in the spontaneous hypertensive rat (SH Rat). Type of data set: in vivo. As to conditions: for ED (40 mm Hg): Rattus norvegicus, single oral dose required to induce a 40 mm average reduction in systolic blood pressure, read-out: Antihypertensive Activity SH Rat AHD40 mg./kg. P.O.; for Actual reduction in blood pressure observed at the indicated dose: SH rat; for lower blood pressure: at 50 mg./kg. The protocol: Antihypertensive activity was determined on the basis of the observed reduction in systolic blood pressure measured according to the method of H. Kersten et al., J. Lab. and Clin. Med. 32, 1090 (1947) following a single oral medication in the unanesthetized spontaneous hypertensive rat described by Okamato et al., Japan Circulation J. 27, 282 (1963).
^a AHD40 = single oral dose required to induce a 40 mm average
reduction in systolic blood pressure in the unanesthetized spontaneous
^f Actual reduction in blood pressure (in mm Hg) observed at the […]

Data set [2] deals with heart rate increase elicited by isoproterenol in the pentobarbitalized dog. Kind of data set: β-adrenergic blocking activity in the pentobarbitalized dog. It counts as in vivo. As to conditions: for ED50 / inhibition at 1 mg/kg / inhibition at 0.1 mg/kg: Canis lupus familiaris; for ED50 / Adrenergic Activity Dog β-blockade AED50: approximate intravenous dose causing 50% inhibition of isoproterenol-elicited heart rate increase; for ED50: read-out: Adrenergic Activity Dog β-blockade AED50; for inhibition at 1 mg/kg: 1.0 mg./kg. intravenous; for inhibition at 1 mg/kg / inhibition at 0.1 mg/kg: read-out: Actual percentage inhibition of heart rate increase above control level at the indicated dose; for inhibition at 0.1 mg/kg: 0.1 mg./kg. intravenous. The protocol: The β-adrenergic blocking activity was determined in the pentobarbitalized dog as judged by the ability of the test compound to inhibit the elevation is heart rate elicited by a 0.5 mcg./kg. i.v. injection of isoproterenol.
^e AED50 = approximate intravenous dose required to cause 50%
inhibition of the heart rate increase elicited by isoproterenol in the
^h Actual percentage inhibition of heart rate increase above control
level observed at the indicated dose.

Data set [3] has as its system hind limb vasculature of the anesthetized dog. The data set is described as follows: Vasodilator activity, dog-leg perfusion. It counts as in vivo. As to conditions: approximate intraarterial dose causing 50% reduction in perfusion pressure in hind limb; for ED50: Canis lupus familiaris, read-out: Vasodilator Activity Dog-Leg Perfusion AED50. From the text: (§1) Vasodilator activity was judged on the basis of observed reduction in perfusion pressure in the hind limb vasculature of the anesthetized dog determined according to the procedure described by Jandhyala et al., European J. Pharm. 17, 357 (1972), and also on the basis of percent reduction in perfusion pressure as measured in the isolated rabbit ear artery according to the method described by De LaLande et al., Aust. J. Exp. Biol. Med. Sci. 43, 639 (1965).
^c AED50 =approximate intraarterial dose required to cause a 50%
reduction in perfusion pressure in the hind limb of the anesthetized dog.

Data set [4] has as its system isolated rabbit ear artery. Kind of data set: Vasodilator activity, isolated rabbit ear artery perfusion pressure. As to conditions: Oryctolagus cuniculus, read-out: Rabbit Ear Artery vasodilation (percentage reduction in perfusion pressure); for inhibition at 50 µM: 5 × 10^-5 M; for inhibition at 20 µM: 2 × 10^-5 M.
Text: as §1
^d Vasodilation is expressed as the percentage reduction in perfusion
pressure from the control level at the indicated molar dose.

In data set [5] the test system is unanesthetized trained renal hypertensive dog. The data set is described as follows: Antihypertensive activity, repeated oral medication in the renal hypertensive dog. As to conditions: for minimal effective dose: Canis lupus familiaris, minimum repeated oral daily dose for sustained lowering of blood pressure of 10% or greater, tid, read-out: Antihypertensive Activity Renal Hypertensive Dog MED10 mg./kg. tid. Type of data set: in vivo. From the text: Antihypertensive activity was also judged on the basis of sustained reduction of blood pressure observed in the unanesthetized trained renal hypertensive dog following repeated oral medication according to the procedure described by Lape et al., Arch. Int. Pharmacodyn. 160, 342 (1966).
^b MED10 = minimum repeated oral daily dose required to effect a
sustained lowering of blood pressure of 10% or greater in the
unanesthetized trained renal hypertensive dog.
^g Actual precentage reduction in blood pressure observed at the […]

The subject of data set [6] is ouabain-induced arrhythmia in dogs. Kind of data set: Ouabain-induced arrhythmia conversion.
Procedure: The latter was determined in vivo and efficacy was judged on the ability of the test compound to convert to normal rhythm the arrhythmia induced by barium ion or ouabain intoxication.
Adult mongrel dogs of either sex, after fasting for 16 to 20 hours, were anesthetized with 35 mg./kg. Na-pentobarbital i.v. and tied supine on an operating table. A patent airway was provided by inserting an endotracheal cannula, and the animal respired spontaneously. A femoral vein was double cannulated with one cannula for injection and the other as a site for ouabain infusion. The ipsilateral femoral artery was cannulated for blood pressure measurement. Na-pentobarbital supplements were given i.v. as needed.
Statham P23A blood pressure transducers were used to measure blood pressure, and electrocardiograms (lead II or V1) were taken with monopolar pin electrodes. Both parameters were printed out on a Grass polygraph. Each dog was given 36 mcg./kg. ouabain i.v. over 1 minute (the solution contained 50 mcg./ml. ouabain in isotonic saline) followed by a constant ouabain infusion (0.6 mcg./kg./min.) starting 5 minutes later. The infusion solution was prepared so that the appropriate dose per minute was delivered in 0.5 ml. […]
All ECG interval and duration measurements were made on lead II with a chart speed of 100 mm./sec. […] Blood pressure was measured using a sensitivity of 10 mm. […]

Regarding `CSc1cc(C(O)CNC(C)CCc2ccc(O)cc2)ccc1O` (single isomer, unassigned) [Example 40B, 4-hydroxy-α-<{[3-(4-hydroxyphenyl)-1-methylpropyl]amino}-methyl>-3-(methylthio)benzenemethanol cyclohexanesulfamate], the ED (40 mm Hg) in data set [1] is greater than 50 mg/kg. In data set [1] (50.0 mg./kg. P.O.), the “Actual reduction in blood pressure observed at the indicated dose” value (shortened to “Actual reduction”) is recorded as -9 mm Hg. Further, the ED50 in data set [2] (iv) amounted to 0.1 mg/kg.

In the case of `COc1ccc(CCCC(C)NCC(O)c2ccc(O)c(SC)c2)cc1` (stereo not drawn) [Example 36, 4-hydroxy-α-<{[4-(4-methoxyphenyl)1-methylbutyl]amino}methyl>-3-(methylthio)benzenemethanol acetate salt], the ED (40 mm Hg) in data set [1] is greater than 50 mg/kg. Also, in data set [1] (50.0 mg./kg. P.O.), the “Actual reduction” value is listed as -17 mm Hg.

With `CC(=O)O.CSc1cc(C(O)CNC(C)(C)Cc2ccccc2)ccc1O` (stereo not drawn) [Example 20, α-{[(1,1-dimethyl-2-phenylethyl)amino]methyl}-4-hydroxy-3-(methylthio)benzenemethanol acetate salt], the ED50 in data set [3] worked out at 0.5 mg/kg. Further, the ED (40 mm Hg) in data set [1] was roughly 50 mg/kg. Also, in data set [2], the inhibition at 1 mg/kg is 56% and the ED50 is less than 1 mg/kg. Besides, the inhibition at 10 µM in data set [4] (1 × 10^-5 M) stood at 71%.

Consider `COc1ccc(CCC(C)NCC(O)c2ccc(O)c(SC)c2)cc1` (stereo not drawn) [Example 12B, 4-hydroxy-α-<{[3-(4-methoxyphenyl)-1-methylpropyl]amino}methyl>3-(methylthio)benzenemethanol acetate salt], for which the inhibition at 0.1 mg/kg in data set [2] was 45%. Besides, the “Adrenergic Activity Dog β-blockade AED50” value in data set [2] (acetate salt) was greater than 0.1 mg/kg.

Consider `COc1ccc(CCC(C)NCC(O)c2ccc(O)c(SC)c2)cc1` (stereo not drawn) [Example 12C, 4-hydroxy-α<{[3-(4-methoxyphenyl)-1-methylpropyl]amino}methyl>-3-(methylthio)benzenemethanol acetate salt], for which the “Adrenergic Activity Dog β-blockade AED50” value in data set [2] (acetate salt) is roughly 0.10 mg/kg.

Take `COc1ccc(CCC(C)NCC(O)c2ccc(O)c(SC)c2)cc1` (stereo not drawn) [Example 5, 4-hydroxy-α-<{[3-(4-methoxyphenyl)-1-methylpropyl]amino}methyl>-3-(methylthio)benzenemethanol acetate salt]: the ED50 was 0.5 mg/kg in data set [3] and 0.1 mg/kg in data set [2] (iv). Also, the ED (40 mm Hg) in data set [1] is 15 mg/kg. In data set [1] (at a dose of 15 mg./kg.), the lowers blood pressure is given as 40 mm. In addition, the “potency relative to the reference compounds” value in data set [1] (at less than one-third the dose of Reference Compounds I and II) is given as “twice as potent”. Besides, in data set [5], the minimal effective dose was greater than 2.5 mg/kg. For the same compound, the “Actual percentage reduction in blood pressure observed at the indicated dose” value in data set [5] (renal hypertensive dog, 2.5 mg./kg. tid) was determined as 0%. Besides, the inhibition at 100 µM in data set [4] (1 × 10^-4 M) turned out to be 55%.

Take `COc1ccc(CC(C)NC(C)C(O)c2ccc(O)c(SC)c2)cc1` (stereo not drawn) [Example 24, 4-hydroxy-α-<{[2-(4-methoxyphenyl)-1-methylethyl]amino}ethyl>-3-(methylthio)benzenemethanol acetate salt]: in data set [1], the ED (40 mm Hg) was greater than 20 mg/kg. Also, the “Actual reduction” value in data set [1] (20.0 mg./kg. P.O.) was -23 mm Hg.

Regarding `COc1ccc(CCC(C)(C)NCC(O)c2ccc(O)c(SC)c2)cc1` (stereo not drawn) [Example 30, α-<{[1,1-dimethyl-3-(4-methoxyphenyl)propyl]amino}methyl>-4-hydroxy-3-(methylthio)benzenemethanol acetate salt], the ED50 in data set [3] is 0.5 mg/kg; in data set [2] (iv), less than 1 mg/kg. Besides, the ED (40 mm Hg) in data set [1] worked out at 20 mg/kg. Further, in data set [2], the inhibition at 1 mg/kg was found to be 72%. The minimal effective dose in data set [5] was found to be 0.5 mg/kg. In addition, the inhibition at 90 µM in data set [4] (9 × 10^-5 M) was found to be 50%.

As for `CC(=O)O.CSc1cc(C(O)CNC(C)(C)CCc2ccccc2)ccc1O` (stereo not drawn) [Example 28, α-{[(1,1-dimethyl-3-phenylpropyl)amino]methyl}-4-hydroxy-3-(methylthio)benzenemethanol acetate salt], the ED50 in data set [3] was 0.5 mg/kg; in data set [2] (iv) it was less than 1 mg/kg. Further, the ED (40 mm Hg) in data set [1] was roughly 10 mg/kg. Besides, the inhibition at 1 mg/kg in data set [2] amounted to 100%. The inhibition at 50 µM in data set [4] stood at 70%.

For the compound `COc1ccc(CCC(C)NCC(O)c2ccc(O)c(SC)c2)cc1` (single isomer, unassigned) [Example 13B], in data set [3], the “Vasodilator Activity Dog-Leg Perfusion AED50” value was 0.5 mg/kg. Besides, the “Adrenergic Activity Dog β-blockade AED50” value in data set [2] was 0.1 mg/kg.

`CSc1cc(C(O)CNC(C)CCc2ccccc2)ccc1O` (stereo not drawn) [Example 32, 4-hydroxy-α-{[(1-methyl-3-phenylpropyl)amino]methyl}-3-methylthio)benzenemethanol acetate salt]: the ED50 in data set [3] turned out to be 0.5 mg/kg; in data set [2] (iv), 0.1 mg/kg. In addition, the ED (40 mm Hg) in data set [1] worked out at 5 mg/kg. Moreover, in data set [4], the inhibition at 50 µM was determined as 81%.

`COc1ccc(CCC(C)NCC(O)c2ccc(SC)c(O)c2)cc1` (stereo not drawn) [Ref Cpd I, 3-hydroxy-α-<{[3-(4-methoxyphenyl)-1-methylpropyl]amino}methyl>-4-(methylthio)benzenemethanol acetate salt, reference compound]: in data set [1], the ED (40 mm Hg) was greater than 50 mg/kg and the lower blood pressure was found to be 20 mm. Moreover, in data set [1] (50.0 mg./kg. P.O.), the “Actual reduction” value is on record as -20 mm Hg.

Regarding `COc1ccc(CC(C)NCC(O)c2ccc(O)c(SC)c2)cc1` (stereo not drawn) [Example 3, 4-hydroxy-α-<{[2-(4-methoxyphenyl)-1-methylethyl]amino}methyl>-3-(methylthio)benzenemethanol acetate salt], the ED50 in data set [3] came to 0.5 mg/kg; in data set [2] it was 0.1 mg/kg. In addition, the ED (40 mm Hg) in data set [1] stood at 20 mg/kg. Moreover, the inhibition at 20 µM in data set [4] stood at 56%.

Consider `COc1cc(CCNCC(O)c2ccc(O)c(SC)c2)cc(OC)c1OC` (stereo not drawn) [Example 51, 4-hydroxy-3-(methylthio)-α-<{[2-(3,4,5-trimethoxyphenyl)ethylamino}methyl>benzenemethanol hydrochloride], for which the “toxic dose in the ouabain test” value in data set [6] (anesthetized dog) was 2.5×10^-5 Mg/kg. Besides, the “activity in the ouabain test” value in data set [6] (below 2.5×10^-5 Mg/kg.) is “inactive”.

Regarding `COc1ccc(CCC(C)NCC(O)c2ccc(O)c(SC)c2)cc1` (single isomer, unassigned) [Example 13A], the ED50 in data set [3] is 0.5 mg/kg; in data set [2] (iv), greater than 0.1 mg/kg. In addition, the inhibition at 0.1 mg/kg in data set [2] was 14%.

Consider `COc1ccc(CCC(C)NCC(O)c2ccc(OC(=O)c3ccccc3)c(SC)c2)cc1` (stereo not drawn) [Example 15A, 4-hydroxy-α-<{[3-(4-methoxyphenyl)-1-methylpropyl]amino}methyl>-3-(methylthio)benzenemethanol 4-benzoate acetate salt], for which the ED (40 mm Hg) in data set [1] is greater than 50 mg/kg. The “Actual reduction” value in data set [1] (50.0 mg./kg. P.O.) is -10 mm Hg.

Regarding `CSc1cc(C(O)CNC(C)Cc2ccccc2)ccc1O` (stereo not drawn) [Example 22, 4-hydroxy-α-{[(1-methyl-3-phenylethyl)amino]methyl}-3-(methylthio)benzenemethanol acetate salt], in data set [3], the ED50 is 0.5 mg/kg. Besides, in data set [1], the ED (40 mm Hg) amounted to 35 mg/kg. In data set [2], the inhibition at 1 mg/kg is 60% and the ED50 is less than 1 mg/kg. In data set [4], the inhibition at 20 µM was 33%.

Consider `COc1ccc(CCC(C)NCC(O)c2ccc(OC)c(SC)c2)cc1` (stereo not drawn) [Ref Cpd II, 4-methoxy-α-<{[3-(4-methoxyphenyl)-1-methylpropyl]amino}methyl>-3-(methylthio)benzenemethanol hydrochloride, reference compound], for which, in data set [1], the ED (40 mm Hg) is greater than 50 mg/kg and the lower blood pressure was 24 mm. Further, the “Actual reduction” value in data set [1] (50.0 mg./kg. P.O.) is reported as -24 mm Hg. In addition, the ED50 in data set [2] (iv) amounted to 0.07 mg/kg.
